Assay results published in article PMC10818749, “Toxicity Studies of Cardiac-Targeting Peptide Reveal a Robust Safety Profile” (Pharmaceutics, 2024).
Entries after “also recorded” stand apart in the source; their conditions may differ. Ends that are not written are not given here.

What was measured:
[1] = tested on: seventy-eight protein channels; test: Eurofins SAFETYscan E/IC50 ELECT (all seventy-eight assays); settings: CTP 0.1 µM to 30 µM
Experimental: Eurofins Toxicology Study: In vitro toxicology studies were performed by Eurofins Scientific through both their Ion Channel Profiler and Cardiac Profiler Panel and their DiscoverX’s SAFETYscan E/IC50 […] service. Increasing concentrations of CTP (0.1 µM to 30 µM) were tested against various ion channels and a total of seventy-eight assays performed utilizing various output reads, including GPCR cAMP modulation assays, calcium mobilization assays, nuclear hormone receptor assays, KINOMEscan binding assays, ion channel assays, transporter assays, and enzymatic assays. All methods described below were performed, described, and reported by Eurofins Scientific in their study report (Supplementary Methods S1 and S2).
GPCR cAMP modulation assays, calcium mobilization assays, nuclear hormone receptor assays, KINOMEscan binding assays, ion channel assays, transporter assays, and enzymatic assays were performed by Eurofins under GLP standards.
DiscoverX was contracted by Maliha Zahid at Mayo Clinic to profile 1 compound(s) with the SAFETYscan E/IC50 ELECT service. Details are
Product: SAFETYscan E/IC50 ELECT
ADOR A2A- Calci um Flux-Agonist DRD2S-cAMP-Agonist HTR3A-Ion Channel-Blocker
ADORA2A-Calcium Flux-Antagonist DRD2S-cAMP-Antagonist HTR3A-Ion Channel-Opener
ADRA1A-Calcium Flux-Agonist EDNRA-Calcium Flux-Agonist KvLQT1/minK-Ion Channel-Blocker […]

COX1 = biological target: T1, COX1 (Homo sapiens, UniProt P23219); test: COX1 enzymatic assay; format: biochemical; settings: up to 30 µM
T1 construct: purchased BPS Bioscience
Experimental: Enzymatic Assays: AChE, COX1, COX2, MAOA, PDE3A, and PDE4D2 activity assays were performed to determine CTP effects on each individual enzyme. Fluorescence was read using a PerkinElmer Envision, and percentage inhibition and compound activity calculated. […]
in complementation with EA generating a unit of active β-gal and based assay for the detection of dopamine, norepinephrine or sero-production of a chemiluminescent signal upon the addition of Path- tonin transporter activity in cells expressing these transporters. The Hunter detection reagents. kit employs a fluorescent substrate that mimics the biogenic amine neurotransmitters that are taken into the cell through these specific transporters, resulting in increased intracellular fluorescence inten-sity. […]
KINOMEscan® Assay fluorescence for improved signal/noise ratio. […]
Compounds that bind the kinase active site and directly (sterically) be monitored within a single experiment. or indirectly (allosterically) prevent kinase binding to the immobi-lized ligand, will reduce the amount of kinase captured on the solid Calcium Assay […]
kinase have no effect on the amount of kinase captured on the of changes in intracellular calcium. […] Upon stimulation, a quantitative, precise and ultra-sensitive qPCR method that detects the receptor signals release of intracellular calcium, which results in the associated DNA label (D). […]

T1 sequence (P23219 24-599): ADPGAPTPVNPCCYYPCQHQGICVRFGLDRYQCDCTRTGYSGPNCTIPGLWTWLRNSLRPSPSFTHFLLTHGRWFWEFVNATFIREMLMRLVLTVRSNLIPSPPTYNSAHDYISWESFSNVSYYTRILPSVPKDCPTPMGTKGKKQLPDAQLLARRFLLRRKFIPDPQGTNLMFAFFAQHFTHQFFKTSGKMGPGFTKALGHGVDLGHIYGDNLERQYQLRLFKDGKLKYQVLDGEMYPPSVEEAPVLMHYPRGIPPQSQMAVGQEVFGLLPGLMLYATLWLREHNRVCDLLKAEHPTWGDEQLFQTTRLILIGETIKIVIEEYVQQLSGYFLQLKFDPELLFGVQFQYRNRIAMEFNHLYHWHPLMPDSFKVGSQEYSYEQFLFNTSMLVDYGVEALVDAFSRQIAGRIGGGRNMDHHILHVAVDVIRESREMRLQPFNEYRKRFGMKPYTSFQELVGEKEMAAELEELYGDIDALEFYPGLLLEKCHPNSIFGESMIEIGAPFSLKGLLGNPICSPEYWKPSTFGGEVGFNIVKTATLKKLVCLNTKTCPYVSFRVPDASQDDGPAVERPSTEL

APWHLSSQYSRT [CTP]
significant interactions across all seventy-eight assays [1]: No significant activation or inhibition of any of seventy-eight protein channels was observed other than OPRM1 and COX2 at the highest tested concentration; also recorded: only two showed significant interactions | inhibition (COX1): some inhibition of COX1 was noted, although it did not reach the set significance threshold
